Assay: xn = mol fraction of the nth substance listed
Conditions: 100 kPa

CO + CC[n+]1ccn(C)c1.N#C[S-]
x2 = 0
Conditions	viscosity [mPa·s]
293.15 K	0.59
303.15 K	0.51
308.15 K	0.48
313.15 K	0.45
323.15 K	0.41

CC[n+]1ccn(C)c1.N#C[S-] + CO
Conditions	electrical conductivity [S/m]	viscosity [mPa·s]
293.15 K, x1 = 0.0988	1.83	2.9
293.15 K, x1 = 0.1966	2.24	5
293.15 K, x1 = 0.3005	2.25	7.5
293.15 K, x1 = 0.3859	2.16	9.5
293.15 K, x1 = 0.5006	2	12.3
293.15 K, x1 = 0.5972	1.87	14.9
293.15 K, x1 = 0.6996	1.76	18
293.15 K, x1 = 0.804	1.68	21
293.15 K, x1 = 0.8997	1.64	24
293.15 K, x1 = 1	1.64	27
298.15 K, x1 = 0.0988	2.08	2.5
298.15 K, x1 = 0.1966	2.44	4.4
298.15 K, x1 = 0.3005	2.45	6.4
298.15 K, x1 = 0.3859	2.36	8.1
298.15 K, x1 = 0.5006	2.2	10.6
298.15 K, x1 = 0.6996	1.96	15.2
298.15 K, x1 = 0.804	1.88	18
298.15 K, x1 = 0.8997	1.84	20
298.15 K, x1 = 1	1.83	23
303.15 K, x1 = 0.0988	2.34	2.1
303.15 K, x1 = 0.1966	2.67	3.8
303.15 K, x1 = 0.3005	2.66	5.5
303.15 K, x1 = 0.5006	2.42	9.1
303.15 K, x1 = 0.5972	2.29	11
303.15 K, x1 = 0.6996	2.18	13.1
303.15 K, x1 = 0.804	2.1	15.3
303.15 K, x1 = 0.8997	2.05	18
308.15 K, x1 = 0.1966	2.89	3.3
308.15 K, x1 = 0.3005	2.88	4.8
308.15 K, x1 = 0.3859	2.81	6.1
308.15 K, x1 = 0.5972	2.52	9.6
308.15 K, x1 = 0.6996	2.41	11.4
308.15 K, x1 = 0.804	2.33	13.4
308.15 K, x1 = 0.8997	2.29	15.5
313.15 K, x1 = 0.0988	2.82	1.7
313.15 K, x1 = 0.1966	3.12	2.9
313.15 K, x1 = 0.3005	3.12	4.2
313.15 K, x1 = 0.3859	3.04	5.3
313.15 K, x1 = 0.5006	2.89	6.9
313.15 K, x1 = 0.5972	2.77	8.3
313.15 K, x1 = 0.6996	2.66	10
313.15 K, x1 = 0.804	2.58	11.7
313.15 K, x1 = 0.8997	2.54	13.5
313.15 K, x1 = 1	2.52	15.4
318.15 K, x1 = 0.0988	3.06	1.5
318.15 K, x1 = 0.1966	3.4	2.5
318.15 K, x1 = 0.3005	3.4	3.6
318.15 K, x1 = 0.3859	3.31	4.6
318.15 K, x1 = 0.5006	3.15	6
318.15 K, x1 = 0.5972	3.04	7.3
318.15 K, x1 = 0.6996	2.93	8.8
318.15 K, x1 = 0.804	2.85	10.3
318.15 K, x1 = 0.8997	2.81	11.9
318.15 K, x1 = 1	2.79	13.6
323.15 K, x1 = 0.0988	3.31	1.35
323.15 K, x1 = 0.3859	3.6	4
323.15 K, x1 = 0.5006	3.4	5.3
323.15 K, x1 = 0.5972	3.3	6.4
323.15 K, x1 = 0.6996	3.22	7.7
